This note sets out measurements from patent publication US4292317A, “1,4-Dihydro-quinoline-3-carboxylic acid derivatives, process for their preparation and compositions containing them” (Laboratorie Roger Bellon, priority 1977, dated 1981).

In brackets after ≈: the same amount, converted by molar mass. Read-outs that look alike come from different tables or passages of the source.

What all share (type): cell-based
For one assay, the system named is Arizona 6.211. Nature of the assay: M.I.C. in vitro, nutrient agar dilution. Conditions: 18 h; Table 2; Arizona 6.211 (Gram negative); read-out: M.I.C. How it is done: (§1) After sterilisation at 120° C., the pH was 6.8.
(§2) The minimum inhibitory concentrations (M.I.C.) were determined by dilution of the test compounds in this mixture, the concentration ranging from 0.05 to 100 μg/cm^3 in a geometric progression with a factor of 2.
(§3) The inoculation of the dishes was carried out by means of a multiple inoculator with 10^-3 dilutions of 18 hour old broth cultures.
(§4) The dishes were placed in an oven at 37° C. and the readings were taken afer an incubation time of 18 hours. The M.I.C. was taken as the lowest concentration which inhibited a culture.

In another assay the test system is Pr. mirabilis Nig. The assay can be described thus: M.I.C. in vitro, nutrient agar dilution. Conditions: Proteus mirabilis, 18 h; Table 2; Pr. mirabilis Nig (Gram negative); read-out: M.I.C. On the procedure: as §1, §2, §3, §4
The next assay concerns Serratia. Nature of the assay: M.I.C. in vitro, nutrient agar dilution. Conditions: 18 h, Table 2, Berratia (Gram negative), read-out: M.I.C. On the procedure:
as §1, §2, §3, §4
For orientation: In agar dilution the substance is mixed into plates at graded concentrations.

The test system of a further assay is Staph. 9.144. Nature of the assay: M.I.C. in vitro, nutrient agar dilution. Conditions: 18 h; Table 2; Staph. 9.144 (Gram positive); read-out: M.I.C. On the procedure: as §1, §2, §3, §4
A further assay deals with Strepto D.M. 19. The assay can be described thus: M.I.C. in vitro, nutrient agar dilution. The conditions noted are these: 18 h; Table 2; Strepto D.M. 19 (Gram positive); read-out: M.I.C. On the procedure:
as §1, §2, §3, §4

The next assay deals with Esch. coli 95 I.S.M. Nature of the assay: M.I.C. in vitro, nutrient agar dilution. The conditions noted are these: Escherichia coli, 18 h; Table 2; Esch. coli 95 I.S.M. (Gram negative); read-out: M.I.C. On the procedure:
as §1, §2, §3, §4

Another assay relates to Ps. aeruginosa 72.345. Nature of the assay: M.I.C. in vitro, nutrient agar dilution. Conditions: Pseudomonas aeruginosa, 18 h; Table 2; Ps. aeruginosa 72.345 (Gram negative); read-out: M.I.C. How it is done: as §1, §2, §3, §4
Another assay deals with Providentia 0223. Nature of the assay: M.I.C. in vitro, nutrient agar dilution. Conditions: 18 h; Table 2; Providentia 0223 (Gram negative); read-out: M.I.C. How it is done: as §1, §2, §3, §4
The test system of a further assay is Esch. coli 111 B4. The assay can be described thus: M.I.C. in vitro, nutrient agar dilution. The conditions noted are these: Escherichia coli, 18 h; Table 2; Esch. coli 111 B4 (Gram negative). On the procedure:
as §1, §2, §3, §4

A further assay concerns S. oranienburg 1066. The assay can be described thus: M.I.C. in vitro, nutrient agar dilution. Conditions: Salmonella enterica, 18 h; Table 2; S. oranienburg 1066 (Gram negative); read-out: M.I.C. On the procedure:
as §1, §2, §3, §4

The test system of the next assay is Pr. vulgaris 12-53. Nature of the assay: M.I.C. in vitro, nutrient agar dilution. The conditions noted are these: Proteus vulgaris, 1253, 18 h; Table 2; Pr. vulgaris 12-53 (Gram negative); read-out: M.I.C. How it is done: as §1, §2, §3, §4
The subject of a further assay is Ps. aeruginosa A.22. The assay can be described thus: M.I.C. in vitro, nutrient agar dilution. Conditions: Pseudomonas aeruginosa, 18 h; Table 2; Ps. aeruginosa A.22 (Gram negative); read-out: M.I.C. On the procedure:
as §1, §2, §3, §4

For a further assay, the system named is B. subtilis. The assay can be described thus: M.I.C. in vitro, nutrient agar dilution. The conditions noted are these: Bacillus subtilis, 18 h; Table 2; B. subtilis (Gram positive); read-out: M.I.C. How it is done: as §1, §2, §3, §4
The next assay has as its system Esch. coli 54.127 O.M.S. The assay can be described thus: M.I.C. in vitro, nutrient agar dilution. The conditions noted are these: Escherichia coli, 18 h; Table 2; Esch. coli 54.127 O.M.S. (Gram negative); read-out: M.I.C. On the procedure:
as §1, §2, §3, §4

In a further assay the test system is Bord. bronchis. 4.617. The assay can be described thus: M.I.C. in vitro, nutrient agar dilution. Conditions: 18 h; Table 2; Bord. bronchis. 4.617 (Gram negative); read-out: M.I.C. On the procedure: as §1, §2, §3, §4
A further assay deals with Klebs. pneum. 10.031. The assay can be described thus: M.I.C. in vitro, nutrient agar dilution. The conditions noted are these: 18 h; Table 2; Klebs. pneum. 10.031 (Gram negative); read-out: M.I.C. How it is done: as §1, §2, §3, §4
A further assay deals with S. enteritidis Danysz. The assay can be described thus: M.I.C. in vitro, nutrient agar dilution. The conditions noted are these: Salmonella enterica, 18 h; Table 2; S. enteritidis Danysz (Gram negative); read-out: M.I.C. On the procedure:
as §1, §2, §3, §4

The subject of a further assay is Pr. morganii A.236. The assay can be described thus: M.I.C. in vitro, nutrient agar dilution. The conditions noted are these: Morganella morganii, 18 h; Table 2; Pr. morganii A.236 (Gram negative); read-out: M.I.C. On the procedure: as §1, §2, §3, §4
The subject of a further assay is Sh. sonnei I.P.S. Nature of the assay: M.I.C. in vitro, nutrient agar dilution. Conditions: Shigella sonnei, 18 h. How it is done:
as §1, §2, §3, §4

In a further assay the test system is Staph. 209 P. Nature of the assay: M.I.C. in vitro, nutrient agar dilution. Conditions: 18 h; Table 2; Staph. 209 P (Gram positive); read-out: M.I.C. On the procedure:
as §1, §2, §3, §4

Another assay deals with Strepto A 561. The assay can be described thus: M.I.C. in vitro, nutrient agar dilution. The conditions noted are these: 18 h; Table 2; Strepto A 561 (Gram positive). How it is done:
as §1, §2, §3, §4

A further assay concerns Salm. typhi 0901. Nature of the assay: microbe, parasite or virus in culture. The conditions noted are these: Salmonella enterica, 18 h; Table 2; Salm. typhi 0901 (Gram negative). How it is done: as §1, §2, §3, §4

`CCn1cc(C(=O)O)c(=O)c2ccc(N3CCN(CCO)CC3)cc21` [Example T4, reference compound]: the MIC with Arizona 6.211 is 12.5 µg/mL (≈ 36.2 µM); in the assay on Pr. mirabilis Nig, 50 µg/mL (≈ 145 µM); with Serratia it was more than 100 µg/mL; in the assay on Staph. 9.144, 3.1 µg/mL (≈ 8.98 µM); with Strepto D.M. 19, 100 µg/mL (≈ 290 µM); with Esch. coli 95 I.S.M. it was 6.2 µg/mL (≈ 18 µM). The MIC is 100 µg/mL (≈ 290 µM) with Ps. aeruginosa 72.345; more than 100 µg/mL in the assay with Providentia 0223; 6.2 µg/mL (≈ 18 µM) against Esch. coli 111 B4; more than 100 µg/mL with S. oranienburg 1066; 25 µg/mL (≈ 72.4 µM) with Pr. vulgaris 12-53; 100 µg/mL (≈ 290 µM) in the assay on Ps. aeruginosa A.22. Moreover, the MIC turned out to be 3.1 µg/mL (≈ 8.98 µM) in the assay with B. subtilis; 6.2 µg/mL (≈ 18 µM) in the assay with Esch. coli 54.127 O.M.S.; 100 µg/mL (≈ 290 µM) in the assay with Bord. bronchis. 4.617; 3.1 µg/mL (≈ 8.98 µM) with Klebs. pneum. 10.031; 12.5 µg/mL (≈ 36.2 µM) with S. enteritidis Danysz; 3.1 µg/mL (≈ 8.98 µM) in the assay with Pr. morganii A.236. For the same molecule, the MIC was 6.2 µg/mL (≈ 18 µM) with Sh. sonnei I.P.S. (Table 2, Sh. sonnei I.P.S. (Gram negative), read-out: M.I.C.); 6.2 µg/mL (≈ 18 µM) in the assay on Staph. 209 P; more than 100 µg/mL against Strepto A 561; 25 µg/mL (≈ 72.4 µM) with Salm. typhi 0901.
Take `CCn1cc(C(=O)O)c(=O)c2cc(Cl)c(N3CCN(C)CC3)cc21` [Example 1, 6-Chloro-1-ethyl-7-(4-methylpiperazinyl)-4-oxo-1,4-dihydro-quinoline-3-carboxylic acid]: the MIC with Arizona 6.211 was 0.2 to 0.8 µg/mL (≈ 0.572 to 2.29 µM); in the assay on Pr. mirabilis Nig, 0.4 to 0.8 µg/mL (≈ 1.14 to 2.29 µM); with Serratia, 1.6 to 3.1 µg/mL (≈ 4.57 to 8.86 µM); with Staph. 9.144, 0.4 to 1.6 µg/mL (≈ 1.14 to 4.57 µM); in the assay with Strepto D.M. 19, 1.6 to 3.1 µg/mL (≈ 4.57 to 8.86 µM); with Esch. coli 95 I.S.M., 0.4 to 0.8 µg/mL (≈ 1.14 to 2.29 µM). For the same molecule, the MIC with Ps. aeruginosa 72.345 fell in the range of 3.1 to 6.2 µg/mL (≈ 8.86 to 17.7 µM); with Providentia 0223, 3.1 to 12.5 µg/mL (≈ 8.86 to 35.7 µM); in the assay on Esch. coli 111 B4, 0.2 to 0.4 µg/mL (≈ 0.572 to 1.14 µM); with S. oranienburg 1066, 12.5 to 25 µg/mL (≈ 35.7 to 71.5 µM); in the assay on Pr. vulgaris 12-53, 0.4 to 1.6 µg/mL (≈ 1.14 to 4.57 µM); with Ps. aeruginosa A.22, 3.1 to 6.2 µg/mL (≈ 8.86 to 17.7 µM). The MIC was 0.2 to 0.4 µg/mL (≈ 0.572 to 1.14 µM) with B. subtilis; 0.2 to 0.4 µg/mL (≈ 0.572 to 1.14 µM) in the assay on Esch. coli 54.127 O.M.S.; 1.6 to 6.2 µg/mL (≈ 4.57 to 17.7 µM) with Bord. bronchis. 4.617; 0.2 µg/mL (≈ 0.572 µM) in the assay with Klebs. pneum. 10.031; 0.4 to 1.6 µg/mL (≈ 1.14 to 4.57 µM) in the assay on S. enteritidis Danysz; 0.2 to 0.8 µg/mL (≈ 0.572 to 2.29 µM) in the assay with Pr. morganii A.236. The MIC in the assay with Sh. sonnei I.P.S. was 0.2 to 0.85 µg/mL (≈ 0.572 to 2.43 µM); with Staph. 209 P it was 0.4 µg/mL (≈ 1.14 µM); with Strepto A 561, 12.5 to 50 µg/mL (≈ 35.7 to 143 µM); against Salm. typhi 0901, 0.4 to 1.6 µg/mL (≈ 1.14 to 4.57 µM).
